Where “and” joins values, the source holds several entries; their conditions need not be identical. Equal entries are not always repeated. Inconclusive results and toxic doses are left out.

The assay concerns BDF1 mice, P388 leukemia ip, median survival T/C. The experiment in a line: NCI In Vivo Anticancer Drug Screen. Data for tumor model P388 Leukemia (intraperitoneal) in B6D2F1 (BDF1) mice. The settings on record: endpoint: median survival time, higher = longer survival. The gist of the method:
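Vehicle-dosed animals serve as the reference; survival of compound-dosed, tumour-implanted mice is divided by it.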

[1] abbreviates: dose: 50.0 mg/kg/injection, schedule: Q01DX009 (ip), vehicle: saline with Tween-80.
Setting [2] is: dose: 100.0 mg/kg/injection, schedule: Q01DX009 (ip), vehicle: saline with Tween-80.
Where [3] appears, read: dose: 200.0 mg/kg/injection, schedule: Q01DX009 (ip), vehicle: saline with Tween-80.
[4] abbreviates: dose: 12.5 mg/kg/injection, schedule: Q04DX003 (ip), vehicle: saline with Tween-80.
The mark [5] stands for this setting: dose: 25.0 mg/kg/injection, schedule: Q04DX003 (ip), vehicle: saline with Tween-80.
The mark [6] stands for this setting: dose: 50.0 mg/kg/injection, schedule: Q04DX003 (ip), vehicle: saline with Tween-80.
[7] abbreviates: dose: 100.0 mg/kg/injection, schedule: Q01DX009 (ip), vehicle: saline.
Where [8] appears, read: dose: 200.0 mg/kg/injection, schedule: Q01DX009 (ip), vehicle: saline.
Setting [9] is: dose: 100.0 mg/kg/injection, schedule: Q04DX003 (ip), vehicle: saline with Tween-80.
Where [10] appears, read: dose: 200.0 mg/kg/injection, schedule: Q04DX003 (ip), vehicle: saline with Tween-80.
The mark [11] stands for this setting: dose: 400.0 mg/kg/injection, schedule: Q04DX003 (ip), vehicle: saline with Tween-80.

As for `CCC(C)(OC(C)=O)C(=O)OC1C(=O)OC2CC3C(C)=CC(=O)C(O)C3(C)C3C(O)C(O)C4(C)OCC23C14` (stereo unspecified), the T/C is 104 % of control (dose: 0.01 mg/kg/injection, schedule: Q01DX009 (ip), vehicle: saline + alcohol); 180 % of control (dose: 0.06 mg/kg/injection, schedule: Q01DX009 (ip), vehicle: saline + alcohol); 161 % of control (dose: 0.1 mg/kg/injection, schedule: Q01DX009 (ip), vehicle: saline + alcohol); 109 % of control (dose: 0.12 mg/kg/injection, schedule: Q01DX009 (ip), vehicle: saline + alcohol); 168 % of control (dose: 0.38 mg/kg/injection, schedule: Q01DX009 (ip), vehicle: saline + alcohol); 161 % of control (dose: 0.75 mg/kg/injection, schedule: Q01DX009 (ip), vehicle: saline + alcohol). For the same compound, the T/C was 173 % of control (dose: 2.0 mg/kg/injection, schedule: Q01DX009 (ip), vehicle: saline + alcohol) and 171 % of control (dose: 3.0 mg/kg/injection, schedule: Q01DX009 (ip), vehicle: saline + alcohol).
As for `CC1=C[S+](c2ccccc2)c2cccc3cc4ccccc4c1c23` (stereo unspecified), the T/C (dose: 0.4 mg/kg/injection, schedule: Q01DX009 (ip), vehicle: saline with Tween-80) is 154 % of control; the T/C (dose: 0.6 mg/kg/injection, schedule: Q01DX009 (ip), vehicle: saline with Tween-80) was 165 % of control; the T/C (dose: 0.9 mg/kg/injection, schedule: Q01DX009 (ip), vehicle: saline with Tween-80) was 154 % of control and 155 % of control; the T/C (dose: 2.5 mg/kg/injection, schedule: Q01DX009 (ip), vehicle: saline with Tween-80) is 116 % of control.
As for `O=S(=O)(/N=C1C=C/C(=N\S(=O)(=O)c2ccccc2)C(Sc2ccccc2)=C\1)c1ccccc1`, the T/C was 104 % of control (dose: 50.0 mg/kg/injection, schedule: Q01DX001 (ip), vehicle: saline with Tween-80); 90 % of control (dose: 100.0 mg/kg/injection, schedule: Q01DX001 (ip), vehicle: saline with Tween-80); 122 % of control (dose: 200.0 mg/kg/injection, schedule: Q01DX001 (ip), vehicle: saline with Tween-80).
As to `CCOC(=O)c1c(C)cc(C)nc1[S][Sn]([Br])([Br])[S]c1nc(C)cc(C)c1C(=O)OCC`, the T/C under setting [1] is 97 % of control, the T/C under setting [2] was 103 % of control and the T/C under setting [3] was 106 % of control.
With `CC(NC(=O)C(N)C(C)C)C(=O)O` (stereo unspecified), the T/C was 92 % of control (dose: 50.0 mg/kg/injection, schedule: Q01DX005 (ip), vehicle: saline); 97 % of control (dose: 100.0 mg/kg/injection, schedule: Q01DX005 (ip), vehicle: saline); 92 % of control (dose: 200.0 mg/kg/injection, schedule: Q01DX005 (ip), vehicle: saline).
With `CCCCCCOCCN1CCN(CCCN2c3ccccc3Sc3ccc(C(F)(F)F)cc32)CC1`, the T/C runs as follows: under setting [4], 121 % of control; under setting [5], 97 % of control and 112 % of control; under setting [6], 94 % of control.
Take `COc1cc(C=O)cc(I)c1O`: the T/C was 105 % of control (dose: 12.5 mg/kg/injection, schedule: Q01DX009 (ip), vehicle: saline sonified); 86 % of control under setting [4]; 94 % of control (dose: 25.0 mg/kg/injection, schedule: Q01DX009 (ip), vehicle: saline sonified); 90 % of control under setting [5]; 100 % of control (dose: 50.0 mg/kg/injection, schedule: Q01DX009 (ip), vehicle: saline sonified); 100 % of control under setting [6].
In the case of `CC(=O)c1ccc[n+](C)c1`, the T/C under setting [7] is 100 % of control and the T/C under setting [8] was 95 % of control.
For `CC(=O)C(c1ccccc1)[N+](C)(C)C` (stereo unspecified), the T/C (dose: 100.0 mg/kg/injection, schedule: Q04DX003 (ip), vehicle: other) was 108 % of control.
Take `Fc1ccc(C(Cl)Cl)cc1`: the T/C under setting [7] is 104 % of control; the T/C under setting [8] is 109 % of control; the T/C (dose: 400.0 mg/kg/injection, schedule: Q01DX009 (ip), vehicle: saline) is 118 % of control.
Turning to `C[P+]1(C)CCc2c1ccc1ccccc21`, the T/C (dose: 12.5 mg/kg/injection, schedule: Q01DX009 (ip), vehicle: saline with Tween-80) was 104 % of control; the T/C (dose: 25.0 mg/kg/injection, schedule: Q01DX009 (ip), vehicle: saline with Tween-80) is 100 % of control; the T/C under setting [1] was 104 % of control.
Turning to `COc1ccc(C2=CC(=O)C(c3ccc(OC)cc3)=CC2=O)cc1`, the T/C (dose: 5.0 mg/kg/injection, schedule: Q01DX009 (ip), vehicle: gum acacia) is 87 % of control; the T/C (dose: 20.0 mg/kg/injection, schedule: Q01DX009 (ip), vehicle: gum acacia) was 91 % of control; the T/C (dose: 20.0 mg/kg/injection, schedule: Q04DX003 (ip), vehicle: gum acacia) was 100 % of control; the T/C (dose: 40.0 mg/kg/injection, schedule: Q01DX009 (ip), vehicle: gum acacia) is 95 % of control; the T/C (dose: 40.0 mg/kg/injection, schedule: Q04DX003 (ip), vehicle: gum acacia) is 90 % of control; the T/C (dose: 80.0 mg/kg/injection, schedule: Q01DX009 (ip), vehicle: gum acacia) was 91 % of control. In addition, the T/C (dose: 80.0 mg/kg/injection, schedule: Q04DX003 (ip), vehicle: gum acacia) is 95 % of control.
For `Cc1cc(N2CCCCC2)nc(N2CCCCC2)c1C#N`, the T/C (dose: 50.0 mg/kg/injection, schedule: Q01DX005 (ip), vehicle: saline with Tween-80) was 86 % of control; the T/C (dose: 100.0 mg/kg/injection, schedule: Q01DX005 (ip), vehicle: saline with Tween-80) is 86 % of control; the T/C (dose: 200.0 mg/kg/injection, schedule: Q01DX005 (ip), vehicle: saline with Tween-80) is 96 % of control.
Consider `Cc1ccc(-c2nc3sccn3c2/C=N/NS(=O)(=O)c2ccc(C)cc2)cc1`, for which the T/C was 101 % of control (dose: 100.0 mg/kg/injection, schedule: Q01DX001 (ip), vehicle: Klucel (hydroxypropylcellulose) (HPC)); 101 % of control (dose: 200.0 mg/kg/injection, schedule: Q01DX001 (ip), vehicle: Klucel (hydroxypropylcellulose) (HPC)); 101 % of control (dose: 400.0 mg/kg/injection, schedule: Q01DX001 (ip), vehicle: Klucel (hydroxypropylcellulose) (HPC)).
`CC/C(=C(\CC)c1ccc(OC)cc1)c1ccc(OC)cc1`: the T/C was 90 % of control under setting [1]; 90 % of control under setting [2]; 86 % of control under setting [9]; 90 % of control under setting [3]; 90 % of control under setting [10]; 95 % of control under setting [11].
On to `O=C1CSC(=S)N1`, for which the T/C was 122 % of control under setting [1], 122 % of control under setting [2] and 104 % of control under setting [3].
Regarding `CN(C)c1ccc(/C=C/c2ccnc3c(O)ccc(O)c23)cc1`, the T/C under setting [1] was 112 % of control and the T/C under setting [2] is 124 % of control.
Turning to `CCCN(CCC)CCC#N`, the T/C is 104 % of control under setting [6], 100 % of control under setting [9] and 90 % of control under setting [10].
Consider `Cc1cccnc1NS(=O)(=O)c1ccccc1`, for which the T/C is 100 % of control under setting [9], 104 % of control under setting [10] and 108 % of control under setting [11].
As to `C1CCNCC1.COc1ccccc1C(=O)[CH-]C(=O)C(F)(F)F.COc1ccccc1C(=O)[CH-]C(=O)C(F)(F)F.COc1ccccc1C(=O)[CH-]C(=O)C(F)(F)F.COc1ccccc1C(=O)[CH-]C(=O)C(F)(F)F.[Eu+3]`, the T/C (dose: 50.0 mg/kg/injection, schedule: Q01DX009 (ip), vehicle: saline) is 88 % of control and the T/C under setting [7] was 119 % of control.
